Test results: publication PMC11802874, “The hypolipidemic effect of MI-883, the combined CAR agonist/ PXR antagonist, in diet-induced hypercholesterolemia model” (Nature Communications, 2025)
Several values for one entry are separate records, joined by “and”; a condition that tells them apart may be missing. Equal values may be shown once.

How the values were obtained:
PXR/NCOA1 = target: T1, PXR/NCOA1 (Homo sapiens, UniProt O75469); assay: Mammalian two-hybrid PXR/coactivator NCOA1 recruitment, HepG2; format: cell-based; parameters: key: firefly/Metridia luciferase activity ratio (normalized)
T1 construct: PXR-LBD (residues 108–434); expressed in transfected cells; host or cells: HepG2
T1 sequence (O75469 108-434): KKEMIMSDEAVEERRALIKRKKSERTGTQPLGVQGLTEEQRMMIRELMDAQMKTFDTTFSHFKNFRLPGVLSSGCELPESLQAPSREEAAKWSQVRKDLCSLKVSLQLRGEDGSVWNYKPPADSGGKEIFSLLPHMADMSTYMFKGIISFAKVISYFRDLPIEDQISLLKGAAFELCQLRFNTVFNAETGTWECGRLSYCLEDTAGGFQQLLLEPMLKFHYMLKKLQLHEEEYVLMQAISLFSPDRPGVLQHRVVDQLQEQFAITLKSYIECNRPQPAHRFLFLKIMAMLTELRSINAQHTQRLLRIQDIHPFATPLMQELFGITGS
Procedure: The GAL4-dependent pGL4-G5, harboring a pentamer of GAL4 binding sites in front of the E1b promoter was described before.
Transient batch transfection of HepG2 cells was done as described above. […] All transfections included 0.01 µg pMetLuc2control per well for normalization of firefly luciferase reporter activities. After overnight incubation with the transfection mixtures, cells were treated with chemicals in a volume of 100 µl of cell culture medium. […] Firefly luciferase activity was measured in 10 µl of cell lysates, and Metridia luciferase activity was analyzed in 10 µl of medium supernatant, both as described before. Results were normalized by dividing firefly luciferase activity by Metridia luciferase activity measured from the same well. Measurements of samples were repeated several times (n ≥ 3).

[1] = target: T2, mutant PXR LBD (S208W/S247W/C284W) (Homo sapiens, UniProt O75469, C284W/S208W/S247W); assay: CYP3A4 reporter assay with LBP-obstructed mutant PXR in HepG2 cells; format: cell-based; conditions: HepG2, 24 h
T2 construct: expressed in transfected cells; host or cells: HepG2
Excerpt: The luciferase reporter plasmid was used together with the human wild-type PXR expression vector or with expression vectors with mutated PXR LBD (Fig. 1j).

[2] = Mouse plasma protein binding; format: in vitro ADME
Excerpt: Plasma protein binding, and stability in human and mouse plasma have been tested as previously described.

HepaRG KO CAR cells = assay: RT-qPCR mRNA expression in HepaRG KO CAR cells; format: cell-based, human
Excerpt: HepaRG cells from Biopredic (Rennes, France) were cultivated and differentiated on the 12-well plates. […] Several batches of HepaRG KO CAR (CAR Knockout HepaRG™ Cells, MTOX1012-1VL, RRID:CVCL_B6AA) and PXR Knockout HepaRG™ Cells, MTOX1011-1VL, RRID:CVCL_B6AS) cells have been obtained from Sigma-Aldrich/Merck (Darmstadt, Germany) and cultivated according to the provider’s protocols. […] Experiments with HepaRG KO PXR and HepaRG KO CAR cells have been performed in duplicates at least in two independent experiments.
RT-qPCR was used to examine gene expression in 2D and 3D PHH, HepaRG cells, or in mouse liver or intestine (ileum) samples as we have described before[60]–[62].
All qRT-qPCR experiments including Trizol reagent (Life Technologies) total RNA isolation, reverse-transcription using a random hexaprimer, and the MMLV Reverse Transcriptase Kit (ThermoFisher Scientific) we have described before^19. qPCR was performed using TaqMan Fast Advanced Master Mix with TaqMan probes (ThermoFisher Scientific). […] The delta-delta method was used for gene expression quantification normalized to at least two reference genes. Three technical replicates were used for each reaction considering the MIQE guidelines. Data are presented as fold induction to vehicle-treated cells/animals.

[3] = tested on: humanized PXR-CAR-CYP3A4/3A7 mice, liver; assay: Liver enzymatic TG measurement (HFD study); format: in vivo, mouse
Procedure: The liver tissue (10 mg) was homogenized using a pre-cooled steel bead in 225 μL of methanol in TissueLyser II (30 Hz, 2 × 30 s) (Qiagen, Hilden, Germany). This was followed by the addition of 750 μL of ice-cold methyl tert-butyl ether. Samples were vortexed and incubated for 1 h on a rotating wheel. Next, 188 μL of LC/MS-grade water was added and, after vortexing, the mixture underwent a short incubation and centrifugation (14,000 × g, 4 °C, 3 min). The upper organic phase containing lipids was collected and 300 μL was transferred to a vial containing 40 μL of 10% Triton X-100 in methanol, followed by evaporation on a heating block with shaking function (300 rpm, 45 °C). LC/MS-grade water (100 μL) was added to the evaporated sample and the tube was vortexed (1000 rpm, 35 °C). The samples were measured using a TG assay (Beckman Coulter, Brea, CA, USA) and a glycerol assay (Randox laboratories, Crumlin, UK) on an AU480 biochemistry analyzer (Beckman Coulter, Brea, CA, USA). The glycerol value was subtracted from the TG value. Livers from seven (n = 7) vehicle-treated controls and ten (n = 10) MI-883-treated animals were used.

mouse Car = mouse Car (Mus musculus, UniProt O35627); assay: Luciferase reporter gene assay mouse Car, HepG2
Excerpt: (§1) The luciferase reporter gene assays for FXR, LXRα, LXRβ, THα, GRα, PPARα, PPARδ/β, PPARγ, AhR, VD, ERα, ERβ and mouse Car are described in our recent paper[19]
The mouse Car expression vector pCMV6-mCar (NM_009803) was obtained from OriGene Technologies, Rockville, MD, USA).
(§2) Gal4-LBD constructs of tested nuclear receptors have been used together with pGL4.31[luc2P/GAL4UAS/Hygro] luciferase reporter construct and pRL-TK Renilla expression vector (both from Promega, Hercules, USA) in HepG2 cells transfected with Lipofectamine 2000 or 3000 reagents. For GRα and FXR receptors, full-length expression vectors have been used with pGRE-luc or pFXRE-luc luciferase constructs. For the aryl hydrocarbon receptor (AhR), p1A1-luc construct was used with only pRL-TK vector for transfection normalization. A dual reporter assay (Promega, Hercules, USA) was used to analyze both firefly and Renilla luciferase activities.
(§3) Gal4-LBD constructs of tested nuclear receptors have been used together with pGL5-luc luciferase reporter construct and pRL-TK Renilla expression vector in HepG2 cells transfected with Lipofectamine 2000 or 3000 reagents. For GRα and FXR receptors, full-length expression vectors have been used with pGRE-luc or pFXRE-luc luciferase constructs. For the aryl hydrocarbon receptor (AhR), p1A1-luc construct was used with only pRL-TK vector for transfection normalization. […] Bars represent means±S.D. (n=3).

[4] = target: aryl hydrocarbon receptor (AhR) (Homo sapiens, UniProt P35869); assay: Luciferase reporter gene assay AhR (p1A1-luc), HepG2
Excerpt: as §1, §2, §3

human PXR LBD = target: T3, human PXR LBD (Homo sapiens, UniProt O75469); assay: PXR LBD assembly assay in HepG2 cells; format: cell-based
T3 construct: helix 1 part of the LBD of PXR (residues 132–188); helices 2-12 of the PXR-LBD (residues 189-434); expressed in transfected cells; host or cells: HepG2
Excerpt: A human PXR LBD assembly assay (Fig. 1k) was done with expression plasmids encoding fusion protein of GAL4-DNA binding domain (DBD) and helix 1 part of the LBD of PXR (residues 132–188) and fusion protein of VP16 activation domain (AD) and helices 2-12 of the PXR-LBD (residues 189-434), respectively, which have all been described previously. Metridia luciferase expression plasmid pMetLuc2control was obtained by Takara-Clontech (Mountain View, CA, USA). Transient batch transfection of HepG2 cells was done in 96-well plates using Jet-PEI transfection reagent (Polyplus, Illkirch, France), as described previously. The following amounts of plasmid DNA per well were used: 0.24 µg pGL4-G5 and 0.03 µg each of expression plasmids encoding GAL4-DBD/PXR(132-188) and VP16-AD/PXR(189-434). All transfections included 0.01 µg pMetLuc2control per well for normalization of firefly luciferase reporter activities. After overnight incubation with the transfection mixtures, cells were treated with chemicals in a volume of 100 µl of cell culture medium. […] Firefly luciferase activity was measured in 10 µl of cell lysates, and Metridia luciferase activity was analyzed in 10 µl of medium supernatant, both as described before. Results were normalized by dividing firefly luciferase activity by Metridia luciferase activity measured from the same well.

aryl hydrocarbon receptor (AhR), sequence (P35869 11-848): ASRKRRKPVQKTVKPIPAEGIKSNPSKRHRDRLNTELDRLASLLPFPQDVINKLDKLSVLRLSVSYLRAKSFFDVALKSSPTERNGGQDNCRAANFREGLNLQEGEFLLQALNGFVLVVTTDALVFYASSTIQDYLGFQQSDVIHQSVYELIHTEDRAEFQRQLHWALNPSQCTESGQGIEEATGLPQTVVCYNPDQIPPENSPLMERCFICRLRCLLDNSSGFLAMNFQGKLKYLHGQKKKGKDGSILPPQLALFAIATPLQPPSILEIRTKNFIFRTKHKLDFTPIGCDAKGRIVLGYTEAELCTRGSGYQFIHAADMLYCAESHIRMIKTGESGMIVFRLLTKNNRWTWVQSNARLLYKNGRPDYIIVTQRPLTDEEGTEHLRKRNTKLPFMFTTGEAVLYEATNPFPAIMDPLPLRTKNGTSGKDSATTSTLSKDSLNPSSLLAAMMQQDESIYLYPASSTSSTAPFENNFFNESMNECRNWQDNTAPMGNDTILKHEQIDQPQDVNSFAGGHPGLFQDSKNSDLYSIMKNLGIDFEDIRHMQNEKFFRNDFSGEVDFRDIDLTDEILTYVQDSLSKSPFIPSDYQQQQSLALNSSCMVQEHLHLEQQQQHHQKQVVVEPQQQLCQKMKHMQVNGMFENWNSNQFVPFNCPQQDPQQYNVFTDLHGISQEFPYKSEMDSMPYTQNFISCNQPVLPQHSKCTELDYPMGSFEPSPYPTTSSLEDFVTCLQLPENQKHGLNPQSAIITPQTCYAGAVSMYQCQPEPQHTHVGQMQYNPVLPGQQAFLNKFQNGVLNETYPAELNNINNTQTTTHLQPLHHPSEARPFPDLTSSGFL
mouse Car, sequence (O35627 whole entry): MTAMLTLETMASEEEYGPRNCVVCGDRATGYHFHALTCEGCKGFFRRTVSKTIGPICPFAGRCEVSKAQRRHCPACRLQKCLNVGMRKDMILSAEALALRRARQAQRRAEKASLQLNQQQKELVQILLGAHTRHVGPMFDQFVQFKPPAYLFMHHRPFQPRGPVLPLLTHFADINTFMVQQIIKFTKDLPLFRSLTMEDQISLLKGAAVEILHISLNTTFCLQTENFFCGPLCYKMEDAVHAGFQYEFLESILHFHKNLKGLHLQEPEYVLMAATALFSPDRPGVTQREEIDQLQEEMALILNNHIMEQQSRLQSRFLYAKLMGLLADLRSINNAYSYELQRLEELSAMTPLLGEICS
T2 sequence (O75469 whole entry S208W/S247W/C284W, the tested form may be a part): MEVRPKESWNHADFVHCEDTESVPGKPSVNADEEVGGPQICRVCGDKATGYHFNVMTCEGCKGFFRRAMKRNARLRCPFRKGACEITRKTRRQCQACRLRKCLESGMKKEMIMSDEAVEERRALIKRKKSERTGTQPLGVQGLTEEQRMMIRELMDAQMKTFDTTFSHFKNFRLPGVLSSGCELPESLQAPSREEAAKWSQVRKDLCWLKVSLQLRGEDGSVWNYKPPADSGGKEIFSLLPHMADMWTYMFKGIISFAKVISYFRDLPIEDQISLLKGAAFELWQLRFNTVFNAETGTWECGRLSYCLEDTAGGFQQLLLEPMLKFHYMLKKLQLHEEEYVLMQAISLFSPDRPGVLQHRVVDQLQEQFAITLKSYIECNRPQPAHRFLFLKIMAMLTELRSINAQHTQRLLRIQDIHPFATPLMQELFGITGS

## NC(=O)c1cc(Cn2cc(-c3c(-c4ccc(Cl)cc4)nc4cc(F)ccn34)nn2)ccc1Cl [MI-883, 2-chloro-5-((4-(2-(4-chlorophenyl)-7-fluoroimidazo[1,2-a]pyridin-3-yl)-1H-1,2,3-triazol-1-yl)methyl)benzamide]
PXR/NCOA1; MI-883 5 μM
  PXR/NCOA1 two-hybrid activity, replicates: 0.25 and 0.27 and 0.49 and 0.53 and 0.45
PXR/NCOA1; RIF + MI-883 5μM
  PXR/NCOA1 two-hybrid activity, replicates: 3.5 and 5.72 and 7.6 and 8.87 and 7.06
PXR/NCOA1; RIF + MI-883 10μM
  PXR/NCOA1 two-hybrid activity, replicates: 2.55 and 2.34 and 3.32 and 3.46
PXR/NCOA1; single agent: RIF (10 µM), MI-883 10μM, control ~1
  PXR/NCOA1 two-hybrid activity, replicates: 0.21 and 0.23 and 0.57 and 0.43 and 0.38
[1]
  inhibition of constitutive activity of LBP-obstructed mutant PXR: failure of MI-883 to inhibit
[2]
  fraction unbound: 0.01
HepaRG KO CAR cells
  CYP7A1 mRNA in HepaRG KO CAR cells: induced
HepaRG KO CAR cells; Phenobarbital 500 μM, CITCO 1 μM, MI 883 1 μM, ctrl = 1
  CYP2B6 mRNA, RT-qPCR, HepaRG KO CAR (Fig. 1f), replicates: 0.55 and 0.6 and 0.76
[3]
  TG accumulation in male livers, enzymatic assay: no significant impact
Mouse Car
  NRs assays: mCar (relative to ctrl, replicates): 1.15 and 1.36 and 1.11
[4]
  NRs assays: AhR (relative to ctrl, replicates): 0.69 and 0.85 and 0.64
Human PXR LBD
  PXR LBD assembly: stimulates
